Measured values: patent US20230148184A1, “COMPOUNDS AND METHODS FOR MODULATING SPLICING” (REMIX THERAPEUTICS INC., priority 2020, published 2023)

What was measured:
Format in all cases: cell-based
SMN2 CJ mRNA = assay: Gene panel canonical junction qPCR assay, SMN2; settings: decrease in CJ mRNA levels, RT-qPCR
Description: (§1) Compounds described herein were used to modulate RNA transcript abundance in cells. The expression of a target mRNA was measured by detecting the formation of an exon-exon junction in the canonical transcript (CJ). A compound mediated exon-inclusion event was detected by observing an increase in formation of a new junction with an alternative exon (AJ). Real-time qPCR assays were used to detect these splicing switches and interrogate the potency of various compounds towards different target genes. A high-throughput real time quantitative PCR (RT-qPCR) assay was developed to measure these two isoforms of the mRNA (CJ and AJ) for an exemplary gene, HTT, together with a control housekeeping gene, GAPDH or GUSB or PPIA, used for normalization. Briefly, the A673 or K562 cell line was treated with various compounds described herein (e.g., compounds of Formula (I)). After treatment, the levels of the HTT mRNA targets were determined from each sample of cell lysate by cDNA synthesis followed by qPCR.
(§2) The A673 cell line was cultured in DMEM with 10% FBS. Cells were diluted with full growth media and plated in a 96-well plate (15,000 cells in 100 ul media per well). The plate was incubated at 37° C. with 5% CO2 for 24 hours to allow cells to adhere. An 11-point 3-fold serial dilution of the compounds was made in DMSO then diluted in media in an intermediate plate. Compounds were transferred from the intermediate plate to the cell plate with the top dose at a final concentration of 10 uM in the well. Final DMSO concentration was kept at or below 0.25%. The cell plate was returned to the incubator at 37° C. with 5% CO2 for an additional 24 hours.
(§3) The K562 cell line was cultured in IMDM with 10% FBS. For K562, cells were diluted with full growth media and plated in either a 96-well plate (50,000 cells in 50 uL media per well) or a 384-well plate (8,000-40,000 cells in 45 uL media per well). An 11-point 3-fold serial dilution of the compounds were made in DMSO then diluted in media in an intermediate plate. Compound was transferred from the intermediate plate to the cell plate with the top dose at a final concentration of 10 uM in the well. Final DMSO concentration was kept at or below 0.25%. Final volume was 100 uL for 96-well plate and 50 uL for 384-well plate. The cell plate was then placed in an incubator at 37° C. with 5% CO2 for 24 hours.
(§4) The cells were then gently washed with 50 uL-100 uL cold PBS before proceeding to addition of lysis buffer. 30 uL-50 uL of room temperature lysis buffer with DNAse I (and optionally RNAsin) was added to each well. Cells were shaken/mixed thoroughly at room temperature for 5-10 minutes for lysis to take place and then 3 uL-5 uL of room temperature stop solution was added and wells were shaken/mixed again. After 2-5 minutes, the cell lysate plate was transferred to ice for RT-qPCR reaction setup. The lysates could also be frozen at −80° C. for later use.
(§5) In some cases, a direct lysis buffer was used. An appropriate volume of 3× lysis buffer (10 mM Tris, 150 mM NaCl, 1.5%-2.5% Igepal and 0.1-1 U/uL RNAsin, pH 7.4) was directly added to either K562 or A673 cells in media and mixed by pipetting 3 times. The plates were then incubated at room temperature with shaking/rocking for 20-50 minutes to allow for lysis to take place. After this time, the cell lysate plate was transferred to ice to set up for the RT-qPCR reactions. The lysates could also be frozen at −80° C. for later use.
(§6) To set up 10 uL RT-qPCR reactions, cell lysates were transferred to 384-well qPCR plates containing the master mix according to the table below. The plates were sealed, gently vortexed, and spun down before the run. The volumes were adjusted accordingly in some instances where the reaction was carried in 20 uL. The table below summarizes the components of the RT-qPCR reactions:
(§7) The RT-qPCR reaction was performed using a QuantStudio (ThermoFisher) under the following fast cycling conditions. […]

HTT mRNA = assay: RT-qPCR splicing assay for HTT mRNA isoforms (canonical junction CJ and alternative junction AJ); settings: A673 or K562 cell line, 24 hours compound treatment; for IC50: decrease in CJ mRNA; for AC50: increase in AJ mRNA
Description: as §1
Cells-to-CT 1-step kit: ThermoFisher A25602, Cells-to-CT lysis reagent: ThermoFisher 4391851C, TaqMan™ Fast Virus 1-Step Master Mix: ThermoFisher 4444436 GAPDH: VIC-PL, ThermoFisher 4326317E (Assay: Hs99999905_m1)—used for K562/suspension cell lines GUSB: VIC-PL, ThermoFisher 4326320E (Assay: Hs99999908_m1)—used for K562/suspension cell lines PPIA: VIC-PL, ThermoFisher 4326316E (Assay: Hs99999904_m1)—used for A673/adherent cell lines
as §2, §3, §4
as §5, with “use. […]” for “use.”

Target C CJ mRNA = assay: Gene panel canonical junction qPCR assay, Target C; settings: decrease in CJ mRNA levels, RT-qPCR
Description: as §1, §2, §3, §4, §5, §6, §7

HTT CJ mRNA = assay: Gene panel canonical junction qPCR assay, HTT; settings: decrease in CJ mRNA levels, RT-qPCR
Description: as §1, §2, §3, §4, §5, §6, §7

Row | SMILES | IC50 (SMN2 CJ mRNA) [nM] | IC50 (HTT mRNA) [nM] | AC50 (HTT mRNA) [nM] | IC50 (Target C CJ mRNA) [nM] | IC50 (HTT CJ mRNA) [nM]
1 | c1cc2c(cc1-c1cn[nH]c1)COc1nc(N[C@@H]3C[C@H]4CC[C@@H](C3)N4)cnc1-2 [Compound 143, (exo)-N-[8-(1H-pyrazol-4-yl)-6H-isochromeno[3,4-b]pyrazin-3-yl]-8-azabicyclo[3.2.1]octan-3-amine] | 100 to 1000 | 100 to 1000 | 100 to 1000 | 100 to 1000 | 100 to 1000
2 | CN(c1ccc2c(n1)OCc1cc(-n3cccn3)ccc1-2)[C@@H]1C[C@H]2CCC[C@@H](C1)N2 [Compound 178] | < 100 | < 100 | < 100 | 100 to 1000 | < 100
3 | CN(c1ccc2c(n1)OCc1cc(-c3ccn(C)c(=O)c3)ccc1-2)[C@@H]1C[C@H]2CC[C@@H](C1)N2 [Compound 153] | < 100 | < 100 | < 100 | < 100 | < 100
4 | COc1cc(-c2ccc3c(c2)COc2nc(N(C)[C@@H]4C[C@H]5CC[C@@H](C4)N5)ccc2-3)cnn1 [Compound 159] | < 100 | < 100 | < 100 | < 100 | < 100
5 | CN(c1ccc2c(n1)OCc1cc(-c3cc(=O)n(C)cn3)ccc1-2)[C@@H]1C[C@H]2CC[C@@H](C1)N2 [Compound 162] | < 100 | < 100 | < 100 | < 100 | < 100
6 | CN(c1ccc2c(n1)COc1cc(-n3cccn3)ccc1-2)C1CC(C)(C)NC(C)(C)C1 [Compound 125, N,2,2,6,6-pentamethyl-N-[8-(pyrazol-1-yl)-5H-chromeno[3,4-b]pyridin-3-yl]piperidin-4-amine] | > 10000 | > 10000 | > 10000 | > 10000 | > 10000
7 | CN(c1ccc2c(n1)OCc1cc(-c3cnn(C)c3)ccc1-2)[C@@H]1C[C@H]2CC[C@@H](C1)N2 [Compound 150] | > 10000 | < 100 | < 100 | 100 to 1000 | < 100
8 | CN(c1ccc2c(n1)OCc1cc(-n3cccn3)ccc1-2)[C@@H]1C[C@H]2CC[C@@H](C1)N2 [Compound 149, (exo)-N-methyl-N-[8-(pyrazol-1-yl)-6H-isochromeno[3,4-b]pyridin-3-yl]-8-azabicyclo[3.2.1]octan-3-amine] | 100 to 1000 | 100 to 1000 | < 100 | 100 to 1000 | 100 to 1000
9 | c1cnn(-c2ccc3c(c2)COc2nc(OC4CCNCC4)ccc2-3)c1 [Compound 187] | 1000 to 10000 | 1000 to 10000 | > 10000 | > 10000 | 1000 to 10000
10 | CN(c1ccc2c(n1)OCc1cc(-n3cccn3)ccc1-2)C1CC(C)(C)NC(C)(C)C1 [Compound 148, N,2,2,6,6-pentamethyl-N-[8-(pyrazol-1-yl)-6H-isochromeno[3,4-b]pyridin-3-yl]piperidin-4-amine] | 100 to 1000 | 1000 to 10000 | 1000 to 10000 | 1000 to 10000 | 1000 to 10000
11 | CC1(C)CC(Oc2ccc3c(n2)OCc2cc(-n4cccn4)ccc2-3)CCN1 (centres unmarked) [Compound 186] | 100 to 1000 | 1000 to 10000 | 1000 to 10000 | > 10000 | 1000 to 10000
12 | CN(c1ccc2c(n1)CCOc1cc(-n3cccn3)ccc1-2)C1CC(C)(C)NC(C)(C)C1 [Compound 129, N-methyl-13-(pyrazol-1-yl)-N-(2,2,6,6-tetramethylpiperidin-4-yl)-10-oxa-6-azatricyclo[9.4.0.0^[2,7]]pentadeca-1(11),2(7),3,5,12,14-hexaen-5-amine] | > 10000 | > 10000 | > 10000 | > 10000 | > 10000
13 | CN(c1ccc2c(n1)OCc1cc(-n3cccn3)ccc1-2)C1CCNCC1 [Compound 175] | 1000 to 10000 | > 10000 | 1000 to 10000 | > 10000 | > 10000
14 | CCN(c1ccc2c(n1)OCc1cc(-n3cccn3)ccc1-2)C1CCNCC1 [Compound 177] | > 10000 | > 10000 | > 10000 | > 10000 | > 10000
15 | c1cnn(-c2ccc3c(c2)COc2nc(N(C4CCNCC4)C4CC4)ccc2-3)c1 [Compound 202] | > 10000 | 1000 to 10000 | > 10000 | > 10000 | 1000 to 10000
16 | CN(c1ccc2c(n1)OCCc1cc(-c3cn[nH]c3)ccc1-2)[C@@H]1C[C@H]2CC[C@@H](C1)N2 [Compound 146] | > 10000 | 1000 to 10000 | 1000 to 10000 | > 10000 | 1000 to 10000
17 | CN(c1ccc2c(n1)COc1cc(-c3cn[nH]c3)ccc1-2)[C@@H]1C[C@H]2CC[C@@H](C1)N2 [Compound 121, (1R,3S,5S)—N-methyl-N-[8-(1H-pyrazol-4-yl)-5H-chromeno[3,4-b]pyridin-3-yl]-8-azabicyclo[3.2.1]octan-3-amine] | 100 to 1000 | 100 to 1000 | 100 to 1000 | 100 to 1000 | 100 to 1000
18 | Cc1cn(-c2ccc3c(c2)COc2nc(N(C)[C@@H]4C[C@H]5CC[C@@H](C4)N5)ccc2-3)cn1 [Compound 164] | < 100 | < 100 | < 100 | 100 to 1000 | < 100
19 | [2H]C([2H])([2H])N(c1ccc2c(n1)OCc1cc(-n3cccn3)ccc1-2)C1CC(C)(C)NC(C)(C)C1 [Compound 199] | 1000 to 10000 | 1000 to 10000 | 1000 to 10000 | > 10000 | 1000 to 10000
20 | [2H]C([2H])([2H])N(c1ccc2c(n1)OCc1cc(-n3cccn3)ccc1-2)[C@@H]1C[C@H]2CC[C@@H](C1)N2 [Compound 201] | < 100 | 100 to 1000 | 100 to 1000 | 100 to 1000 | 100 to 1000
21 | CN(c1ccc2c(c1)CCOc1cc(-n3cccn3)ccc1-2)[C@@H]1C[C@H]2CC[C@@H](C1)N2 [Compound 113] | > 10000 | > 10000 | > 10000 | > 10000 | > 10000
22 | [2H]C([2H])([2H])N(c1ccc2c(n1)OCc1cc(-n3cccn3)ccc1-2)C1CCNCC1 [Compound 176] | 1000 to 10000 | 1000 to 10000 | 1000 to 10000 | > 10000 | 1000 to 10000
